The assay has as its target MAPK14 (human) (UniProt Q16539). As to the kind of experiment: Inhibition of MAPK14 Kinase Activity.

Some results are limits rather than exact numbers.

MAPK14 (human), sequence (Q16539 whole entry, looked up): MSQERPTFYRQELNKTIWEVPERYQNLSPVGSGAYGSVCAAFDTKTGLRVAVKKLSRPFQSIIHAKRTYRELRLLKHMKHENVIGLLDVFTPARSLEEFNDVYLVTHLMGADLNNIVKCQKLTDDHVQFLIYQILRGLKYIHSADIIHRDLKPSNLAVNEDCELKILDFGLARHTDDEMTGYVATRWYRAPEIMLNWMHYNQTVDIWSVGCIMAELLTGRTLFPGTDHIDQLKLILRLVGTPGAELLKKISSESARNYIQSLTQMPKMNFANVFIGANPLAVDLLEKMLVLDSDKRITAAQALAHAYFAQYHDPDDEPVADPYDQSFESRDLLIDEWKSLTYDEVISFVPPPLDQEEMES

Usually IC50 stands for the point on the concentration scale where inhibition reaches its midpoint. Higher therefore signals a need for much substance. With `CC(C)Cc1ccc(C(C)C(=O)N2CCN(Cc3nc(-c4ccc(F)cc4)c(-c4nc(C(=O)NC(C)C)cs4)o3)CC2)cc1` (stereo unspecified), the IC50 is at most 1000 nM. For `CCOC(=O)CC(=O)N1CCC(c2[nH]nc(-c3ccc(F)cc3)c2-c2nc(C(=O)NC(C)C)cs2)CC1` the value was at most 1000 nM; for `CC(C)NC(=O)c1csc(-c2oc(CNC(C)CO)nc2-c2ccc(F)cc2)n1` (stereo unspecified), at most 1000 nM. The compound `C#CCNC(=O)c1csc(-c2c(-c3ccc(F)cc3)n[nH]c2C2CCNCC2)n1` came in with an IC50 of at most 1000 nM. With `CC(C)NC(=O)c1csc(-c2oc(CNC(=O)c3c4ccccc4cc4ccccc34)nc2-c2ccc(F)cc2)n1` the figure was at most 1000 nM. The compound `COc1ccc(CNC(=O)c2csc(-c3sc(C)nc3-c3ccc(F)cc3)n2)cc1O` yielded an IC50 of at most 1000 nM. Turning to `COc1ccc(-c2ccccc2)cc1NCc1onc(-c2ccc(F)cc2)c1-c1nc(C(=O)NC(C)C)cs1`, the IC50 was at most 1000 nM.

In turn, `CC(C)NC(=O)c1csc(-c2oc(CN3CCN(C(=O)c4cc([N+](=O)[O-])ccc4O)CC3)nc2-c2ccc(F)cc2)n1` yielded a concentration for half-maximal inhibition (IC50) of at most 1000 nM.

For the compound `CC(C)NC(=O)c1csc(-c2oc(CN3CCN(C(=O)c4cn(C)cn4)CC3)nc2-c2ccc(F)cc2)n1`, the IC50 was at most 1000 nM. Turning to `Cc1nc(-c2ccc(F)cc2)c(-c2nc(C(=O)NCc3ccccc3F)cs2)s1`, the IC50 was at most 1000 nM. With `CC(C)NC(=O)c1csc(-c2oc(CN(C)C)nc2-c2ccc(F)cc2)n1` the figure was at most 1000 nM. As to `CC(C)NC(=O)c1csc(-c2c(-c3ccc(F)cc3)noc2CNC(=O)C(F)(F)F)n1`, the concentration for half-maximal inhibition (IC50) was at most 1000 nM. Compound `CCN(CC)c1ccc(C(=O)N2CCN(Cc3nc(-c4ccc(F)cc4)c(-c4nc(C(=O)NC(C)C)cs4)o3)CC2)cc1` returned a concentration for half-maximal inhibition (IC50) of at most 1000 nM. Compound `CC(C)NC(=O)c1csc(-c2oc(CBr)nc2-c2ccc(F)cc2)n1` came in with an IC50 of at most 1000 nM. The compound `CC(C)NC(=O)c1csc(-c2oc(CNC(=O)C(Cc3ccccc3)NC(=O)OC(C)(C)C)nc2-c2ccc(F)cc2)n1` (stereo unspecified) gave an IC50 of at most 1000 nM. As to `CCCCCCCC(=O)NCc1nc(-c2ccc(F)cc2)c(-c2nc(C(=O)NC(C)C)cs2)o1`, the 50% inhibitory concentration (IC50) was at most 1000 nM. Consider `COc1ccc([N+](=O)[O-])c(C(=O)NCc2nc(-c3ccc(F)cc3)c(-c3nc(C(=O)NC(C)C)cs3)o2)c1`, for which the IC50 was at most 1000 nM. `CC(C)NC(=O)c1csc(-c2oc(CNC(=O)c3ccc(Cl)cc3Cl)nc2-c2ccc(F)cc2)n1` returned a half-inhibitory concentration (IC50) of at most 1000 nM. For `O=C(NCC(F)(F)F)c1csc(-c2c(-c3ccc(F)cc3)ncn2C2CCNCC2)n1`, the IC50 was at most 1000 nM. For `CC(C)NC(=O)c1csc(-c2oc(CNC(=O)c3ncc[nH]3)nc2-c2ccc(F)cc2)n1` the value was at most 1000 nM. `CC(C)NC(=O)c1csc(-c2oc(CNC(=O)c3cccc(C#N)c3)nc2-c2ccc(F)cc2)n1` came in with a half-inhibitory concentration (IC50) of at most 1000 nM. With `COc1ccccc1CNC(=O)c1csc(-c2sc(C)nc2-c2ccc(F)cc2)n1`, the half-inhibitory concentration (IC50) is at most 1000 nM. With `CNC(=O)c1csc(-c2sc(C)nc2-c2ccc(F)cc2)n1` the figure was at most 1000 nM; with `Cc1nc(-c2ccc(F)cc2)c(-c2nc(C(=O)NCC3CCCCC3)cs2)s1`, at most 1000 nM; with `CC(C)NC(=O)c1csc(-c2oc(CN3CCN(C(=O)c4ccc(-c5ccc(O)cc5)cc4)CC3)nc2-c2ccc(F)cc2)n1`, at most 1000 nM. For `COc1ccc(O)c(C(=O)N2CCN(Cc3nc(-c4ccc(F)cc4)c(-c4nc(C(=O)NC(C)C)cs4)o3)CC2)c1` the value was at most 1000 nM; for `CC(C)NC(=O)c1csc(-c2oc(CN3CCN(C(=O)CC#N)CC3)nc2-c2ccc(F)cc2)n1`, at most 1000 nM. The compound `Cc1nc(-c2ccc(F)cc2)c(-c2nc(C(=O)NCc3cccc(Cl)c3)cs2)s1` returned an IC50 of at most 1000 nM. Compound `CCOC(=O)CC1C(=O)NCCN1C(=O)c1csc(-c2sc(C)nc2-c2ccc(F)cc2)n1` (stereo unspecified) had an IC50 of at most 1000 nM.

The compound `Cc1nc(-c2ccc(F)cc2)c(-c2nc(C(=O)NCc3ccc(F)cc3)cs2)s1` had a concentration for half-maximal inhibition (IC50) of at most 1000 nM.

In turn, `CC(=O)Oc1cccc(C(=O)N2CCN(Cc3nc(-c4ccc(F)cc4)c(-c4nc(C(=O)NC(C)C)cs4)o3)CC2)c1` gave an IC50 of at most 1000 nM.

(Values after the Kinase Knowledgebase extract (Sharma et al. 2016).)
